Experimental data taken from patent publication US10245255B2, “Compositions and methods for the treatment of obesity and related disorders” (THE REGENTS OF THE UNIVERSITY OF MICHIGAN, priority 2011, dated 2019).

How the values were obtained:
[1] = system: BAT explants; experiment: Lipid oxidation rate in ex vivo BAT; parameters: species or system mice; conditions: 5 μM amlexanox, 1 hour
Method: Lipid oxidation was determined by the conversion of 3H-palmitic acid to 3H2O.

[2] = Ob/ob mice: liver mRNA levels; format: in vivo; conditions: 100 mg/kg for 14 weeks, vs vehicle
Method: Particular physiological tests were used during the development of the technology provided herein. For example, in some of the experiments described below, subjects were tested for tolerance of injected glucose and insulin according to the methods described in Chiang et al. (“The protein kinase IKKepsilon regulates energy balance in obese mice”, Cell (2009) 138: 961-975, incorporated herein by reference in its entirety for all purposes). In some of the experiments described below, subjects were tested for tolerance of oral glucose. In particular, mice were fasted for 6 hours before the studies. For ob/ob mice, 1.0-1.5 mg/g of glucose was gavaged into mice, and blood glucose was measured with a glucometer (e.g., OneTouch Ultra glucometer). Measurement of triglycerides, mRNA, and cytokines were performed according to the methods described in Chiang et al. (The protein kinase IKKepsilon regulates energy balance in obese mice. Cell (2009) 138: 961-975).
Mouse tissues were isolated, rinsed in Phosphate Buffered Saline (PBS), frozen in liquid nitrogen and stored at −80° C. until extraction. Total RNA was extracted from Liver, WAT and BAT tissues as well as differentiated 3T3-L1 cells using the RNeasy Lipid Tissue Kit (Qiagen, Valencia, Calif.) according to the manufacturer's instructions with the inclusion of a DNase digestion step. Total RNA was extracted from BMDM and SVF cells using the RNeasy Kit (Qiagen, Valencia, Calif.) with a DNase step. The Superscript First-Strand Synthesis System for RTPCR (Invitrogen, Grand Island, N.Y.) was used with random primers for reverse transcription. Realtime PCR amplification of the cDNA was performed on samples in triplicate with Power SYBR Green PCR Master Mix (Applied Biosystems, Carlsbad, Calif.) using the Applied Biosystems 7900HT Fast Realtime PCR System. […] Data was analyzed using the 2-ΔΔCT method, and statistical significance was determined using the unpaired heterocedastic Student's t-test with one averaged sample value per mouse.

[3] = Established diet-induced obesity treatment group: body weight, food intake, body composition; format: in vivo, C57BL/6 mice
Method: Wild type male C57BL/6 mice were fed a high fat diet consisting of 45% of calories from fat (D12451 Research Diets Inc., New Brunswick, N.J.) starting at 8 weeks of age for 12-24 weeks, while normal diet C57BL/6 controls were maintained on normal chow diet consisting of 4.5% fat (5002 Lab Diet, Philadelphia, Pa.). Diets containing ω-3 fatty acids were fed as previously described 24. Rosiglitazone treatment was administered for three weeks by addition of the compound to the diet in mice that had been on HFD for 16 weeks. Each mouse consumed on average 3.5 mg/kg rosiglitazone per day. Amlexanox was administered by daily oral gavage. […] Animals were housed in a specific pathogen-free facility with a 12-hour light/12-hour dark cycle and given free access to food and water. All animal use was in compliance with the Institute of Laboratory Animal Research Guide for the Care and Use of Laboratory Animals and approved by the University Committee on Use and Care of Animals at the University of Michigan and UCSD.
The remaining weight of food provided was determined daily for singly housed mice. Daily food consumption was calculated from a three-day average.

SMILES: CC(C)c1ccc2oc3nc(N)c(C(=O)O)cc3c(=O)c2c1 [amlexanox, 2-amino-7-isopropyl-5-oxo-5H-chromeno[2,3-b]pyridine-3-carboxylic acid]
- lipid oxidation (3H-palmitic acid to 3H2O) [1]: acutely stimulated
- liver mRNA level, Cd11c [2]: reduced
- liver mRNA level, F4/80 [2]: reduced
- liver mRNA level, IL-10 [2]: reduced
- liver mRNA level, MIP1α [2]: reduced
- liver mRNA level, Rantes [2]: reduced
- liver mRNA level, TNFα [2]: reduced
- liver mRNA level, acetyl CoA carboxylase (ACC) [2]: reduced
- liver mRNA level, fatty acid synthase (FAS) [2]: reduced
- liver mRNA level, stearyl CoA desaturase (SCD1) [2]: reduced
- weight loss ([3]; 25 mg/kg after 12 weeks of 45% high-fat diet, after 4 weeks of treatment): 10 g
- reduction in overall mass of adipose tissue ([3]; 25 mg/kg, HFD, treatment phase): > 6 gram
- time to return to control weights after treatment was stopped ([3]; withdrawal after 8 weeks of 25 mg/kg treatment, HFD): 6-8 weeks
